Results on 25 molecules are retold here after ChEMBL document CHEMBL1201862, “PubChem BioAssay data set” (2004).

The term GI50 denotes the concentration that inhibits growth by half.

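Protocol summary: plate cells (96-well), add compound at 5 concentrations, incubate 48 h, interpolate endpoints linearly. GI50 = concentration required for 50% inhibition of growth.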 Activity calls are given as the source filed them. Rule as the data show it: active = GI50 up to about 1.1 µM and inactive = higher. Bounds are passed on as bounds.

Test systems include DLD-1; SNB-78; LXFL 529; DMS-114; RXF 631; HOP-18; KM-20L2; DMS-273; XF498.
Common to all, as to assay: DTP human tumour cell line panel, 48 h

Consider `Nc1nc(O)c2c(ncn2CC(O)CO)n1` (configuration not stated), for which the GI50 in the assay on DLD-1, in the assay on SNB-78, with LXFL 529, in the assay on DMS-114, in the assay with RXF 631 and in the assay with HOP-18 was > 100 µM (inactive) throughout. The GI50 in the assay with KM-20L2 and in the assay with DMS-273 was > 100 µM (inactive) each time.

In the case of `CCN(CC)CC(C)(C)C(=O)/C=C/c1ccc(/C=C/C(=O)C(C)(C)CN(CC)CC)cc1`, the GI50 in the assay on XF498 was 0.317 µM (active); in the assay with DLD-1 it was 0.341 µM (active); in the assay on SNB-78, 1.41 µM (inactive); with LXFL 529, 0.188 µM (active); with DMS-114, 0.266 µM (active); in the assay on KM-20L2, 0.617 µM (active). In the assay with DMS-273, the GI50 is 0.234 µM (active).

In the case of `CCOC(=O)C(C)(C)Oc1ccc2c(-c3ccc(Cl)cc3)c(-c3ccc(Cl)cc3)c(=O)oc2c1`, the GI50 with DLD-1, in the assay on LXFL 529, with DMS-114, with RXF 631, with KM-20L2 and in the assay with DMS-273 was > 100 µM (inactive) each time.

For the molecule `Cc1ccc(NC(=O)/C(Cl)=C(/Cl)C(=O)O)cc1`, the GI50 in the assay with DLD-1 is 16.4 µM (inactive); with SNB-78, 30.1 µM (inactive); with LXFL 529, 11.9 µM (inactive); in the assay with DMS-114, 20 µM (inactive); in the assay with RXF 631 it was 24.4 µM (inactive); in the assay on HOP-18 it was 19.1 µM (inactive). Moreover, the GI50 was 22.4 µM (inactive) with KM-20L2 and 22.1 µM (inactive) in the assay with DMS-273.

In the case of `CC1(OCc2ccccc2)C(=O)N2C1N(C(=O)OCc1ccccc1)CC2(C)C` (configuration not stated), the GI50 with XF498 was 24.8 µM (inactive); in the assay with DLD-1 it was 54.3 µM (inactive); in the assay with LXFL 529 it was 31.6 µM (inactive); with DMS-114, 31.3 µM (inactive); in the assay with KM-20L2, 55.8 µM (inactive); in the assay on DMS-273 it was 53.6 µM (inactive).

Regarding `CCN(CC)C(=O)N1CCN(C=S)CC1`, the GI50 in the assay on DLD-1, in the assay on SNB-78, in the assay with LXFL 529, in the assay on DMS-114, in the assay with HOP-18 and with KM-20L2 was > 100 µM (inactive) in each case. Besides, the GI50 in the assay with DMS-273 was > 100 µM (inactive).

As to `Cn1nc2ccc3nccc(NCCNCCO)c3c2n1`, the GI50 is 35 µM (inactive) in the assay with XF498; 33.2 µM (inactive) in the assay on DLD-1; 36.2 µM (inactive) in the assay with SNB-78; 39.2 µM (inactive) in the assay on LXFL 529; 25.8 µM (inactive) with KM-20L2.

As for `N#Cc1cc([N+](=O)[O-])ccc1NC(=O)C(=O)Nn1c(S)nc2ccccc2c1=O`, the GI50 with XF498, in the assay on DLD-1, in the assay with SNB-78, with LXFL 529, with RXF 631 and in the assay on HOP-18 was > 100 µM (inactive) throughout. Besides, the GI50 with KM-20L2 was > 100 µM (inactive).

For `CCOC(=O)C(C)(C)Oc1ccc2c(-c3ccccc3)cc(=O)oc2c1`, the GI50 is 16.4 µM (inactive) with XF498; 25.3 µM (inactive) in the assay with DLD-1; 25.3 µM (inactive) in the assay on LXFL 529; 21.9 µM (inactive) with DMS-114; 30.6 µM (inactive) in the assay on KM-20L2; 29 µM (inactive) in the assay with DMS-273.

For the molecule `CC(=O)N1CCC2(C=Nc3ccccc32)CC1`, the GI50 in the assay with XF498, in the assay with DLD-1, in the assay on SNB-78, in the assay with LXFL 529, in the assay with DMS-114 and in the assay with HOP-18 was > 100 µM (inactive) in each case. For the same molecule, the GI50 with KM-20L2 and in the assay with DMS-273 was > 100 µM (inactive) each time.

For `O=[N+]([O-])c1ccc(-c2ccc(C3=Nn4c(CNc5ccccc5Cl)nnc4SC3)o2)cc1`, the GI50 in the assay on XF498 is > 100 µM (inactive); with DLD-1, > 100 µM (inactive); in the assay on SNB-78 it was > 100 µM (inactive); in the assay on LXFL 529, 82.4 µM (inactive); in the assay with KM-20L2, > 100 µM (inactive); in the assay with DMS-273 it was > 100 µM (inactive).

As for `CC1=C(C(=O)Nc2ccccc2)C(c2ccc(N(C)C)cc2)C(C(=O)Nc2ccccc2)=C(C)N1`, the GI50 in the assay on XF498 was > 100 µM (inactive); in the assay on DLD-1, 8.36 µM (inactive); in the assay on SNB-78, > 37.1 µM (inactive); with LXFL 529 it was 0.175 µM (active); in the assay on DMS-114, 0.211 µM (active); in the assay with HOP-18 it was > 100 µM (inactive). Also, the GI50 with KM-20L2 is 0.439 µM (active); in the assay on DMS-273 it was 0.428 µM (active).

For the molecule `COc1ccc(NC(=O)C2C(=O)N(c3ccc(OC)cc3)C(=O)/C2=N/O)cc1` (configuration not stated), the GI50 with XF498 was 14 µM (inactive); in the assay with DLD-1, 64.4 µM (inactive); in the assay on SNB-78, 46.8 µM (inactive); with LXFL 529 it was 25.2 µM (inactive); in the assay on DMS-114, 35.6 µM (inactive); with HOP-18, 17.9 µM (inactive). Besides, the results for the GI50 with KM-20L2 and in the assay on DMS-273 were 48 µM (inactive) and 26.8 µM (inactive), respectively.

Take `CN(C)CCNC(=O)c1cccc2c1nc(-c1ccc(F)cc1)c1ccccc12`: the GI50 is 2.45 µM (inactive) in the assay with DLD-1; 10.7 µM (inactive) with SNB-78; 4.42 µM (inactive) in the assay with DMS-114; 14.4 µM (inactive) with HOP-18; 2.15 µM (inactive) with DMS-273.

For `CC(=O)/C(=N\O)C(=O)NCc1ccccc1`, the GI50 in the assay with DLD-1 was > 100 µM (inactive); with SNB-78, > 100 µM (inactive); in the assay on LXFL 529, > 100 µM (inactive); in the assay on DMS-114, 29.4 µM (inactive); in the assay on RXF 631, > 100 µM (inactive); in the assay on HOP-18 it was > 100 µM (inactive). The GI50 in the assay on KM-20L2 and in the assay with DMS-273 was > 100 µM (inactive) each time.

With `O=C(Cc1ccccc1)NN1C(=O)C(Cl)C1c1cccc(O)c1` (configuration not stated), the GI50 was 20.1 µM (inactive) in the assay with XF498; 14.8 µM (inactive) in the assay with DLD-1; 15.8 µM (inactive) in the assay on SNB-78; 10.6 µM (inactive) in the assay with LXFL 529; 13.8 µM (inactive) with DMS-114; 20.6 µM (inactive) in the assay with HOP-18. In addition, the GI50 is 15.1 µM (inactive) in the assay with KM-20L2 and 16.1 µM (inactive) in the assay with DMS-273.

For `COC(=O)C1Cc2c([nH]c3ccccc23)[C@H](CC(C)C)N1` (some centres not stated), the GI50 in the assay with XF498, with DLD-1, in the assay on SNB-78, in the assay with LXFL 529, in the assay with DMS-114 and in the assay on HOP-18 was > 100 µM (inactive) in each case. The GI50 in the assay on KM-20L2 and with DMS-273 was > 100 µM (inactive) throughout.

Consider `[O-][S+](c1ccc(O)cc1)c1ccc(O)cc1`, for which the GI50 with XF498, in the assay on DLD-1, in the assay on DMS-114, with RXF 631, in the assay on KM-20L2 and in the assay with DMS-273 was > 100 µM (inactive) throughout.

Turning to `O=C(CN1CCN(c2ccccc2)CC1)N1CCc2c([nH]c3ccccc23)C1c1cccnc1` (configuration not stated), the GI50 with XF498 is 24.1 µM (inactive); in the assay on DLD-1 it was > 53 µM (inactive); in the assay with SNB-78, 13.5 µM (inactive); with LXFL 529, 71.9 µM (inactive); in the assay on DMS-114 it was 26.9 µM (inactive); in the assay on RXF 631, 33.3 µM (inactive). The GI50 with HOP-18 is > 100 µM (inactive); in the assay with KM-20L2, > 100 µM (inactive); in the assay on DMS-273, 49 µM (inactive).

As for `CC[C@]12C=CCN3CCC4(c5cc([C@@]6(C(=O)OC)CC7CN(CCc8c6[nH]c6ccccc86)C[C@@H]6CCCC[C@H]76)c(OC)cc5N(C)C4[C@](O)(C(=O)OC)C1OC(C)=O)[C@@H]32` (some centres not stated), the GI50 in the assay with XF498, with DLD-1, in the assay with SNB-78, with LXFL 529, in the assay on DMS-114 and in the assay with KM-20L2 was < 0.01 µM (active) throughout. The GI50 in the assay on DMS-273 was < 0.01 µM (active).

For `CCCCCCCCCC[C@@H](O)[C@@H]1CC[C@@H]([C@@H]2CC[C@@H]([C@@H](O)CCCCCCCCCC[C@H](O)CC3=CC(C)OC3=O)O2)O1` (some centres not stated), the GI50 in the assay on DLD-1 was 3.31 µM (inactive); in the assay on SNB-78, 3.8 µM (inactive); with LXFL 529, 3.82 µM (inactive); in the assay with DMS-114 it was < 0.01 µM (active); with RXF 631, 1.97 µM (inactive); in the assay with KM-20L2 it was 13.6 µM (inactive). In the assay with DMS-273, the GI50 was 2.36 µM (inactive).

For `OC1[C@H]([C@H]2CCCC[C@@H]2O)CCC[C@@H]1[C@@H]1CCCC[C@H]1O` (some centres not stated), the GI50 with XF498 is > 100 µM (inactive); in the assay with DLD-1, > 100 µM (inactive); with SNB-78, 48.2 µM (inactive); with LXFL 529 it was > 100 µM (inactive); in the assay with DMS-114, > 100 µM (inactive); in the assay with HOP-18, > 100 µM (inactive). Moreover, the GI50 with KM-20L2 and with DMS-273 was > 100 µM (inactive) throughout.

Consider `CCCCCCCCCC(=O)N[C@H]1CCc2cc(OC)c(OC)c(OC)c2-c2ccc(SC)c(=O)cc21`, for which the GI50 with XF498 is 0.022 µM (active); in the assay on DLD-1 it was 0.0352 µM (active); in the assay with SNB-78, 0.0405 µM (active); in the assay with LXFL 529, 0.0297 µM (active); with DMS-114 it was 0.0188 µM (active); in the assay with RXF 631 it was 0.0197 µM (active). Also, the GI50 in the assay with KM-20L2 was 0.0198 µM (active); in the assay on DMS-273 it was < 0.01 µM (active).

Regarding `Oc1cc(-c2cccc(Cl)c2)nc2cc3c(cc12)OCO3`, the GI50 is 1.4 µM (inactive) in the assay with XF498; 0.245 µM (active) with DLD-1; 0.19 µM (active) in the assay on LXFL 529; 0.296 µM (active) in the assay on DMS-114; 1.5 µM (inactive) in the assay on HOP-18; 0.327 µM (active) in the assay on DMS-273.

Turning to `CC(=O)O[C@@]12CO[C@@H]1C[C@H](O)[C@@]1(C)C(=O)[C@H](O)C3=C(C)[C@@H](OC(=O)[C@H](O)[C@@H](NC(=O)OC(C)(C)C)c4ccccc4)C[C@@](O)([C@@H](OC(=O)c4ccccc4)[C@H]21)C3(C)C` [DOCETAXEL], the 50% growth inhibitory concentration (GI50) in the assay on DLD-1 is < 0.01 µM (active); in the assay with LXFL 529, < 0.01 µM (active); in the assay on DMS-114, < 0.01 µM (active); in the assay on RXF 631, < 0.01 µM (active); with HOP-18 it was 29.9 µM (inactive); in the assay with KM-20L2, < 0.01 µM (active). The GI50 with DMS-273 is < 0.01 µM (active).
